# Results published in patent US9776987B2, “Amide derivatives for GPR119 agonist” (CHONG KUN DANG PHARMACEUTICAL CORP., priority 2013, dated 2017).
# Like-named read-outs stand apart in the source and are kept apart here.
# Experiments:
# [1] = Solubility test of GPR 119 agonist compounds (Nephelostar); assay type: physicochemical; conditions: aqueous with cosolvent or surfactant or cyclodextrin, kinetic from dmso stock
# Protocol: 1. Method of Solubility Test
# Each test compounds were dissolved in 5% DMSO aqueous solution as a solvent at several concentrations. When a laser was irradiated to the solution, the particles, which are not dissolved in the solvent, scatter the light. The level of the scattered light is dependent to the number of the particles, so the solubility of the test compound in the solution can be determined using the relationship. As the test equipment, Nephelostar was used.
# [2] = tested on: Glucagon-Like Peptide-1 (GLP-1) secretion; assay: Secretion capacity test of glucagon-like peptide-1 (GLP-1); assay type: in vivo, mouse; conditions: normal mice, oral, AUC of plasma GLP-1 level, vehicle (water) 100%
# Protocol: 3. Secretion Capacity Test of Glucagon-Like Peptide-1 (GLP-1)
# Male C57/6J Jms mice of 6-7 weeks of age were fasted for 16 hours before the start of the test of secretion capacity test of GLP-1. The experimental animal groups consist of: a vehicle group (100% DI water); and test groups administered with each compounds (10 mg/kg). Blood samples were taken from the orbital vein of the test animals. Plasma GLP-1 level was determined using a GLP-1 ELISA kit (Total GLP-1 ELISA, ALPCO). With the base of 30 minutes before the compound administration, each blood samples were taken at 30, 60, 120 and 210 minutes after the compound administration. 30% Glucose solution (3 g/kg/10 mL) was administered orally at 5 minutes before each blood-collecting. From the collected blood, only plasma was taken using a centrifuge (12000 rpm, 15 minutes), and stored at −80° C. before analysis. Plasma GLP-1 level vs. Time was graphicalized. Area under the curve (AUC) of plasma GLP-1 level was obtained using GraphPad Prism 4.0. All the results were expressed as mean±SD, and each test groups and the control group were compared using one-way ANOVA test (Dunnett's test, *p<0.05, **p<0.01, ***p<0.001) to adjudge the effects of each test groups.
# Male C57/6J Jms mice = assay: Glucose tolerance test in normal mouse; assay type: in vivo
# Protocol: 1. Method of Glucose Tolerance Test
# Male C57/6J Jms mice of 6-7 weeks of age were fasted for 16 hours before the start of glucose tolerance test. […]
# Before compound administration, that is, at 0 hour, whole blood glucose level was determined using a Glucometer (ACCU-CHEK, Roche). At 30 minutes after compound administration, whole blood glucose level was determined once again, and 20% glucose (2 g/kg/10 mL) was administered orally. Whole blood glucose level was determined at 20, 40, 60, 80, and 120 minutes after 20% glucose administration. Whole blood glucose level vs. Time was graphicalized. Area under the curve (AUC) of whole blood glucose level was obtained using GraphPad Prism 4.0. The effect of glucose tolerance was adjudged with the corrected area under the curve (cAUC), on which the base value of glucose area under the curve was excluded.
# human GPR119 receptor = target: T1, human GPR119 receptor (Homo sapiens, UniProt Q8TDV5); assay: Activity test for human GPR119 receptor (GeneBLAzer T-Rex GPR 119 CHO-K1 DA cells); assay type: cell-based; conditions: for EC50: human GPR119 receptor expressing CHO-K1 cells, 5 hours treatment, read-out: hGPR119 EC50; for activity for human GPR119 receptor (in words): judgement on the EC50 values of Table 11
# T1 construct: host or cells: GeneBLAzer T-Rex GPR 119 CHO-K1 DA cells (CHO-K1)
# T1 sequence (Q8TDV5 1-335): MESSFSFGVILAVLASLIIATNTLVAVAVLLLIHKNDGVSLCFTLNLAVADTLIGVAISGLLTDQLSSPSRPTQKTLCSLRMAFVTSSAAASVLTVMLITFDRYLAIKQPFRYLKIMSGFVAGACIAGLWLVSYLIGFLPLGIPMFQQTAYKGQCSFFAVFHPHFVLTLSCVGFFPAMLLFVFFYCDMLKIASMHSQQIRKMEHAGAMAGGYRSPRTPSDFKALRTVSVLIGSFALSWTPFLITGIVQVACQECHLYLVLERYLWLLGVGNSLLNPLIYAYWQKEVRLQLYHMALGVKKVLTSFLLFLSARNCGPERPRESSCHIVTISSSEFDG
# Protocol: 1. Human GPR119 Receptor Cell
# As a human GPR119 receptor expression cell for this test, the cell line “GeneBLAzer™ T-Rex GPR 119 CHO-K1 DA cells” that is commercially available from Invitrogen, was used. The cell was incubated in the DMEM media containing 1% dialyzed fetal bovine serum etc. The cell incubator was kept at constant temperature and constant humidity of 37° C., 5% CO2.
# 2. Activity Test for Human GPR119 Receptor
# The human GPR119 receptor expressing cell was used to this test. Each of test compounds was added to be final concentrations of 0.1, 1, 10 μM in 96 well and tested in duplicate. A fixed amount of cell was added to each well of 96 well separately, and then treated with the test compound for 5 hours. After treatment of color development agent for 2 hours, the fluorescence value was determined with plate reader. To the luminous wavelength of control well, which was not treated with the sample, but in which only a vehicle […] was contained, the ratio of the luminous wavelength of test well, which was treated with the sample, was calculated, and then converted to obtain EC50 value.
# 3. Statistical Processing
# All the results were expressed as mean±SD, and each test groups and the control group were compared using student's t-test to adjudge the effects of each test groups.
# [3] = pH 2, 5% DMSO aqueous solution, read-out: Solubility pH 2
# [4] = pH 4, 5% DMSO aqueous solution, read-out: Solubility pH 4
# [5] = pH 6, 5% DMSO aqueous solution, read-out: Solubility pH 6
# [6] = pH 8, 5% DMSO aqueous solution, read-out: Solubility pH 8
# [7] = 10 mg/kg, whole blood glucose AUC after oral glucose 2 g/kg, 10 mg/kg
# [8] = 10 mg/kg, whole blood glucose AUC after oral glucose 2 g/kg
SMILES,"solubility [1, 3]","solubility [1, 4]","solubility [1, 5]","solubility [1, 6]",EC50 (human GPR119 receptor),activity for human GPR119 receptor (in words) (human GPR119 receptor),GLP-1 secretion (%) at 10 mg/kg of dose [2],Decrease % of AUC at 2.5 mg/kg (Male C57/6J Jms mice; 2.5 mg/kg),Decrease % of AUC at 5 mg/kg (Male C57/6J Jms mice; 5 mg/kg),Decrease % of AUC at 10 mg/kg (Male C57/6J Jms mice; [7]),Decrease % of AUC at 10 mg/kg (Male C57/6J Jms mice; [8])
"CC(C)(CN1CCC(COc2ccc(-c3ccc(C(=O)N4C[C@H](O)C[C@H]4C(N)=O)c(F)c3)c(F)c2)CC1)C(F)(F)F [Compound 1240, (2S,4R)-1-(2′,3-difluoro-4′-((1-(3,3,3-trifluoro-2,2-dimethylpropyl)piperidin-4-yl)methoxy)biphenylcarbonyl)-4-hydroxypyrrolidin-2-carboxamide]",,,,,0.1 nM,,,,,35%,
"CC(C)c1noc(N2CCC(COc3ccc(-c4ccc(S(C)(=O)=O)cc4)nc3)CC2)n1 [GSK-1292263, reference compound]",,,,,,,,,,,10~20%
"CC(C)(CN1CCC(COc2ccc(-c3ccc(C(=O)N4C[C@H](O)C[C@H]4C(N)=O)c(F)c3)cn2)CC1)C(F)(F)F [Compound 1208, (2S,4R)-1-(2-fluoro-4-(6-((1-(3,3,3-trifluoro-2,2-dimethylpropyl)piperidin-4-yl)methoxy)pyridin-3-yl)benzoyl)-4-hydroxypyrrolidin-2-carboxamide]",,,,,3 nM,excellent activity,,,,38%,
"CC(C)(CN1CCC(COc2ccc(-c3ccc(C(=O)N4C[C@H](O)C[C@H]4C(N)=O)cc3)nc2)CC1)C(F)(F)F [Compound 1322, (2S,4R)-4-hydroxy-1-(4-(5-((1-(3,3,3-trifluoro-2,2-dimethylpropyl)piperidin-4-yl)methoxy)pyridin-2-yl)benzoyl)pyrrolidin-2-carboxamide]",> 274 µg/mL,> 274 µg/mL,> 274 µg/mL,89 µg/mL,6 nM,excellent activity,,,,,
"CC(C)(CN1CCC(COc2ccc(-c3ccc(C(=O)N4C[C@H](O)C[C@H]4C(N)=O)cc3F)nc2)CC1)C(F)(F)F [Compound 1323, (2S,4R)-1-(3-fluoro-4-(5-((1-(3,3,3-trifluoro-2,2-dimethylpropyl)piperidin-4-yl)methoxy)pyridin-2-yl)benzoyl)-4-hydroxypyrrolidin-2-carboxamide]",> 283 µg/mL,> 283 µg/mL,355 µg/mL,88 µg/mL,4 nM,excellent activity,,,,,
"NC(=O)[C@@H]1C[C@@H](O)CN1C(=O)c1ccc(-c2ccc(OCC3CCN(CC4(C(F)(F)F)CCC4)CC3)cn2)c(F)c1 [Compound 1286, (2S,4R)-1-(3-fluoro-4-(5-((1-((1-(trifluoromethyl)cyclobutyl)methyl)piperidin-4-yl)methoxy)pyridin-2-yl)benzoyl)-4-hydroxypyrrolidin-2-carboxamide]",> 289 µg/mL,> 289 µg/mL,> 289 µg/mL,108 µg/mL,3 nM,excellent activity,,,,,
"NC(=O)[C@@H]1C[C@@H](O)CN1C(=O)c1ccc(-c2ccc(OCC3CCN(CC4(C(F)(F)F)CCC4)CC3)cc2)cc1 [Compound 1199, (2S,4R)-4-hydroxy-1-(4′-((1-((1-(trifluoromethyl)cyclobutyl)methyl)piperidin-4-yl)methoxy)biphenylcarbonyl)pyrrolidin-2-carboxamide]",,,,,12 nM,,,,,31%,
"CCc1cnc(N2CCC(c3nc(COc4ccc(-n5cnnn5)cc4)cs3)CC2)nc1 [MBX-2982, reference compound]",> 208 µg/mL,133 µg/mL,61 µg/mL,39 µg/mL,,,114%,9.5%,18.5%,,20~30%

# Continued, in another order:
"solubility [1, 3]","solubility [1, 4]","solubility [1, 5]","solubility [1, 6]",EC50 (human GPR119 receptor),activity for human GPR119 receptor (in words) (human GPR119 receptor),SMILES,GLP-1 secretion (%) at 10 mg/kg of dose [2],Decrease % of AUC at 2.5 mg/kg (Male C57/6J Jms mice; 2.5 mg/kg),Decrease % of AUC at 5 mg/kg (Male C57/6J Jms mice; 5 mg/kg),Decrease % of AUC at 10 mg/kg (Male C57/6J Jms mice; [7]),Decrease % of AUC at 10 mg/kg (Male C57/6J Jms mice; [8])
> 257 µg/mL,> 257 µg/mL,> 257 µg/mL,> 257 µg/mL,0.07 nM,excellent activity,"CC(C)(F)CN1CCC(COc2ccc(-c3ccc(C(=O)N4CCC[C@@]4(C)C(N)=O)c(F)c3)nc2)CC1 [Compound 1207, (S)-1-(2-fluoro-4-(5-((1-(2-fluoro-2-methylpropyl)piperidin-4-yl)methoxy)pyridin-2-yl)benzoyl)-2-methylpyrrolidin-2-carboxamide]",223%,31.3%,45.1%,,
> 279 µg/mL,> 279 µg/mL,> 279 µg/mL,166 µg/mL,13 nM,excellent activity,"CCC(F)(CC)CN1CCC(COc2ccc(-c3ccc(C(=O)N4C[C@H](O)C[C@@]4(C)C(N)=O)c(F)c3)nc2)CC1 [Compound 1291, (2S,4R)-1-(4-(5-((1-(2-ethyl-2-fluorobutyl)piperidin-4-yl)methoxy)pyridin-2-yl)-2-fluorobenzoyl)-4-hydroxy-2-methylpyrrolidin-2-carboxamide]",347%,15.7%,38.0%,,
> 272 µg/mL,> 272 µg/mL,> 272 µg/mL,133 µg/mL,13 nM,excellent activity,"CCC(F)(CC)CN1CCC(COc2ccc(-c3ccc(C(=O)N4C[C@H](O)C[C@H]4C(N)=O)c(F)c3)nc2)CC1 [Compound 1279, (2S,4R)-1-(4-(5-((1-(2-ethyl-2-fluorobutyl)piperidin-4-yl)methoxy)pyridin-2-yl)-2-fluorobenzoyl)-4-hydroxypyrrolidin-2-carboxamide]",324%,20.8%,30.2%,,
> 271 µg/mL,> 271 µg/mL,157 µg/mL,55 µg/mL,2 nM,,CCC(F)(CC)CN1CCC(COc2ccc(-c3ccc(C(=O)N4C[C@H](O)C[C@H]4C(N)=O)cc3F)cc2)CC1 [Compound 1205],,,,,
> 296 µg/mL,> 296 µg/mL,> 296 µg/mL,102 µg/mL,6 nM,excellent activity,"C[C@@]1(C(N)=O)C[C@@H](O)CN1C(=O)c1ccc(-c2ccc(OCC3CCN(CC4(C(F)(F)F)CCC4)CC3)cn2)cc1F [Compound 1290, (2S,4R)-1-(2-fluoro-4-(5-((1-((1-(trifluoromethyl)cyclobutyl)methyl)piperidin-4-yl)methoxy)pyridin-2-yl)benzoyl)-4-hydroxy-2-methylpyrrolidin-2-carboxamide]",,,,,
